According to patent US20070167452A1, “Therapeutic amide derivatives” (PFIZER, INC., priority 2004, published 2007):

Experiments:
Human HERG = Human HERG (Homo sapiens, UniProt Q12809); experiment: Human Dofetilide Binding Assay
Experimental: Human HERG transfected HEK293S cells were prepared and grown in-house. The collected cells were suspended in 50 mM Tris-HCl (pH 7.4 at 4° C.) and homogenized using a hand held Polytron PT 1200 disruptor set at full power for 20 sec on ice. The homogenates were centrifuged at 48,000×g at 4° C. for 20 min. The pellets were then resuspended, homogenized, and centrifuged once more in the same manner. The final pellets were resuspended in an appropriate volume of 50 mM Tris-HCl, 10 mM KCl, 1 mM MgCl2 (pH 7.4 at 4° C.), homogenized, aliquoted and stored at −80° C. until use. An aliquot of membrane fractions was used for protein concentration determination using BCA protein assay kit (PIERCE) and ARVOsx plate reader (Wallac).
Binding assays were conducted in a total volume of 200 μl in 96-well plates. Twenty μl of test compounds were incubated with 20 μl of [^3H]-dofetilide (Amersham, final 5 nM) and 160 μl of membrane homogenate (25 μg protein) for 60 minutes at room temperature. Nonspecific binding was determined by 10 μM dofetilide at the final concentration. Incubation was terminated by rapid vacuum filtration over 0.5% presoaked GF/B Betaplate filter using Skatron cell harvester with 50 mM Tris-HCl, 10 mM KCl, 1 mM MgCl2, pH 7.4 at 4° C. The filters were dried, put into sample bags and filled with Betaplate Scint. Radioactivity bound to filter was counted with Wallac Betaplate counter.

NR2B receptor = target: T1, NR2B receptor (Rattus norvegicus, UniProt P35439+Q00960); experiment: NR2B Binding Assay; details: forebrain P2 membranes of male CD rats; 5 nM [3H] NR2B ligand
T1 construct: Membranes were prepared by homogenization of forebrain of male CD rats; from tissue; host or cells: forebrain of male CD rats (P2 membrane)
Experimental: The activity of the cycloalkylene amide compounds of the present invention, as NR2B antagonists, is determined by their ability to inhibit the binding of NR2B subunit at its receptor sites employing radioactive ligands.
The NR^2B antagonist activity of the cycloalkylene amide compounds is evaluated by using the standard assay procedure described in, for example, J. Pharmacol., 331, pp 117-126, 1997. This method essentially involves determining the concentration of the individual compound required to reduce the amount of radiolabelled NR2B ligands by 50% at their receptor sites, thereby affording characteristic IC50 values for each compound tested. More specifically, the assay is carried out as follows.
Membranes were prepared by homogenization of forebrain of male CD rats weighing between 170˜190 g by using glass-Teflon homogenizer in 0.32 M sucrose at 4° C. The crude nuclear pellet was removed by centrifugation at 1000×g for 10 min, and the supernatant centrifuged at 17000×g for 25 min. The resulting pellet was resuspended in 5 mM Tris acetate pH 7.4 at 4° C. for 10 min to lyse cellular particles and again centrifuged at 17000×g. The resulting pellet (P2 membrane) was washed twice in Tris acetate, resuspended at 5.5 mg protein/ml and stored at −20° C. until use. All the manipulation was done on ice, and stock solution and equipment were kept on ice at all time.
For the saturation assay, receptor saturation was determined by incubating [^3H]-1-[(1S*,2S*)-2-hydroxy-2-(4-hydroxyphenyl)-1-methylethyl]-4-phenylpiperidin-4-ol and 50 μg protein of P2 membrane for 60 minutes at room temperature in a final 100 μl of incubation buffer (50 mM Tris HCl, pH7.4). Total and non-specific bindings (in the presence of 10 μM of unlabeled 1-[(1S*,2S*)-2-hydroxy-2-(4-hydroxyphenyl)-1-methylethyl]-4-phenylpiperidin-4-ol) were determined in a range of [^3H]-1-[(1S*,2S*)-2-hydroxy-2-(4-hydroxyphenyl)-1-methylethyl]-4-phenylpiperidin-4-ol concentrations (0.625 nM to 60 nM).
For the competition assay, test compounds were incubated in duplicate with 5 nM [^3H]-1-[(1S*,2S*)-2-hydroxy-2-(4-hydroxyphenyl)-1-methylethyl]-4-phenylpiperidin-4-ol and 50 μg protein of P2 membrane for 60 minutes at room temperature in a final 100 μl of 50 mM Tris HCl buffer (pH7.4). Nonspecific binding was determined by 10 μM of unlabeled 1-[(1S*,2S*)-2-hydroxy-2-(4-hydroxyphenyl)-1-methylethyl]-4-phenylpiperidin-4-ol (25 μl). The saturation derived KD gained in saturation assay was used for all Ki calculations.
All incubations were terminated by rapid vacuum filtration over 0.2% polyethyleneimine soaked Whatman GF/B glass fibre filter paper using a SKATRON cell harvester followed by three washes with ice-cold filtration buffer (5 mM Tris HCl, pH 7.4.). Receptor-bound radioactivity was quantified by liquid scintillation counting using Packard LS counter. Competition assays were performed by counting Wallac GF/B filters on Betaplate scintillation counter (Wallac).

T1 sequence (Q00960 27-1482, other chains not shown): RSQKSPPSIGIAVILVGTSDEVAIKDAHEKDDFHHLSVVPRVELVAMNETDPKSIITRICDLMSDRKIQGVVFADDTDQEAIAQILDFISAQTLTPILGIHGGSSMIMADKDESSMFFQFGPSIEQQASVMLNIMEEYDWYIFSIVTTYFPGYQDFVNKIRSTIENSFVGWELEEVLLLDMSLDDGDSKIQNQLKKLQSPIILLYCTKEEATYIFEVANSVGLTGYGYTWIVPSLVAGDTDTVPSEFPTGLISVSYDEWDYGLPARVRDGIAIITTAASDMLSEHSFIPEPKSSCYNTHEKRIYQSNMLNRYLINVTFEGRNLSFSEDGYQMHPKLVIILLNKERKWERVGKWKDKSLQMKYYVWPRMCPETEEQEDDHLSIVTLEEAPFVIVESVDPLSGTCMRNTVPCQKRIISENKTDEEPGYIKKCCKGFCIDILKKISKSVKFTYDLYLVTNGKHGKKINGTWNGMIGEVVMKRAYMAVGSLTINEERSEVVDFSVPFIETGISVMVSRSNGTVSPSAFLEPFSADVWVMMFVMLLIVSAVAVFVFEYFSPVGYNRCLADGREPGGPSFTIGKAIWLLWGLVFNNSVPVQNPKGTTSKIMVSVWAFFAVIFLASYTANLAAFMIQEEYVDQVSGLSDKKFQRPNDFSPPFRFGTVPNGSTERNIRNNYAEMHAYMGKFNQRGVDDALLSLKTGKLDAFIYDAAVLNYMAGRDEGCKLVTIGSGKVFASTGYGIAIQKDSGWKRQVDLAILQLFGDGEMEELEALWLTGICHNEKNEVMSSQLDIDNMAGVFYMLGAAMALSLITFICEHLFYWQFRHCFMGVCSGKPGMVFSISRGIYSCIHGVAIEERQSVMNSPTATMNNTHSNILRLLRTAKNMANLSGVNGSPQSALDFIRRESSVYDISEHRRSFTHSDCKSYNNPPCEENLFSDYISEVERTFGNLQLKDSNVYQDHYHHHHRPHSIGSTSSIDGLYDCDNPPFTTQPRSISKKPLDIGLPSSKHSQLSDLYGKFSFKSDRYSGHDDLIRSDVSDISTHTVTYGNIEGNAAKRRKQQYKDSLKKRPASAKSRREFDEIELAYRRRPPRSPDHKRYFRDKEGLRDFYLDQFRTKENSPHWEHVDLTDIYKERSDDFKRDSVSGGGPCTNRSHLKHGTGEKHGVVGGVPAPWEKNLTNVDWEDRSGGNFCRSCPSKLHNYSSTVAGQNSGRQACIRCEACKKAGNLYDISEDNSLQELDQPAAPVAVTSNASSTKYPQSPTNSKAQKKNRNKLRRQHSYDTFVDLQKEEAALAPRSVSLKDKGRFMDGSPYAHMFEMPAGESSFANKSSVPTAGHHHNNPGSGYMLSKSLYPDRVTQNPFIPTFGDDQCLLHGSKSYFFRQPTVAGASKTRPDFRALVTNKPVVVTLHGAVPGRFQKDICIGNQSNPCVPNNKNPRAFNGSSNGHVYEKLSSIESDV
Chain of Human HERG (Q12809 whole entry): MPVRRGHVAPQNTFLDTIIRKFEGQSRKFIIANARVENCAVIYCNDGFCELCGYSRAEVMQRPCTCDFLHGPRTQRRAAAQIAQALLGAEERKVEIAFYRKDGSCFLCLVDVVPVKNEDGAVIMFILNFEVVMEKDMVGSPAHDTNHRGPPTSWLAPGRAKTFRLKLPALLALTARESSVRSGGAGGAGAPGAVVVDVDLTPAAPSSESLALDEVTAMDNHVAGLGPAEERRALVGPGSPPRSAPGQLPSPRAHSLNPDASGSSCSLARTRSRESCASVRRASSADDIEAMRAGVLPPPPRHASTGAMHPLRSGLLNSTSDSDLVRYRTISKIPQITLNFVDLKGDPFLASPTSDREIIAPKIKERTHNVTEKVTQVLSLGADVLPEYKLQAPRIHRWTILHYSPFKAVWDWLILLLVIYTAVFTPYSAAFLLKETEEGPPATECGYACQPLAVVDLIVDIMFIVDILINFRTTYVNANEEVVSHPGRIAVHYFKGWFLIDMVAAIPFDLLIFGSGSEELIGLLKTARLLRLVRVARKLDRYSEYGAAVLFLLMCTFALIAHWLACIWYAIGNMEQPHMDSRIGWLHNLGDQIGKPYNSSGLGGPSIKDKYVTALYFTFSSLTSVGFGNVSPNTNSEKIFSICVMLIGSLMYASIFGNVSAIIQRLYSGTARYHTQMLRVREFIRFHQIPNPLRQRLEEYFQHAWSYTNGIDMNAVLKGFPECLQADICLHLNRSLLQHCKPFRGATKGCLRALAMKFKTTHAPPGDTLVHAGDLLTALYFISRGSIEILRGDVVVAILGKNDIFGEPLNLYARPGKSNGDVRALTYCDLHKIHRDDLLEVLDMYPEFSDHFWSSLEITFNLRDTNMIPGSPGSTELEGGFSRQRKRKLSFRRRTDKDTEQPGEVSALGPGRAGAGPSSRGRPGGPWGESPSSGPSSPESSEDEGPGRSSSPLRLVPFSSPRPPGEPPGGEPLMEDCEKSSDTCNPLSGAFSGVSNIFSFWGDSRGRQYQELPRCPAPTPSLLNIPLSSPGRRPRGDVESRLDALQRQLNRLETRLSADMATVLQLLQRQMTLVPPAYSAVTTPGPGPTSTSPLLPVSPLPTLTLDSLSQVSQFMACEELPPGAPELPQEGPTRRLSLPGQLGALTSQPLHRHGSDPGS

| IC50 (NR2B receptor) [nM] | SMILES | IC50 (Human HERG) [nM] |
| --- | --- | --- |
| 25.9 | O=C(NC[C@@H]1CCC[C@H](OCCc2ccccc2)C1)c1cn[nH]c1 (single isomer, unassigned) [Example 116] | > 100000 |
| 23.6 | O=C(NC[C@]1(O)CC[C@H](OCc2ccccc2)CC1)c1ccc(O)cc1 [Example 30, N-{[trans-4-(Benzyloxy)-1-hydroxycyclohexyl]methyl}-4-hydroxybenzamide] | > 100000 |
| 19.3 | O=C(NC[C@]1(O)CC[C@H](Oc2ccc(Cl)cc2)CC1)c1ccc(O)c(F)c1 [Example 33, N-{[trans-4-(4-Chlorophenoxy)-1-hydroxycyclohexyl]methyl}-3-fluoro-4-hydroxybenzamide] | 95600 |
| 20.9 | O=C(NC[C@H]1CC[C@@H](COc2ccccc2)CO1)c1ccc(O)cc1 [Example 35, (+)-4-Hydroxy-N-{[5S-(phenoxymethyl)tetrahydro-2H-pyran-2S-yl]methyl}benzamide] | 51600 |
| 7.5 | O=C(NC[C@@H]1CC[C@H](COc2ccccc2)CO1)c1ccc(O)cc1 [Example 36, (−)-4-Hydroxy-N-{[5R-(phenoxymethyl)tetrahydro-2H-pyran-2R-yl]methyl}benzamide] | 55200 |
| 8.2 | O=C(NC[C@H]1CC[C@@H](COCc2ccccc2)CO1)c1ccc(O)cc1 [Example 39, 4-Hydroxy-N-{[5S-(benzyloxymethyl)tetrahydro-2H-pyran-2S-yl]methyl}benzamide] | > 100000 |
| 10.4 | O=C(NC[C@@H]1CC[C@H](COCc2ccccc2)CO1)c1ccc(O)cc1 [Example 40, 4-Hydroxy-N-{[5R-(benzyloxymethyl)tetrahydro-2H-pyran-2R-yl]methyl}benzamide] | > 100000 |
| 7.6 | O=C(NC[C@H]1CC[C@@H](COc2ccccc2)OC1)c1ccc(O)cc1 [Example 43, (−)-4-Hydroxy-N-{[(3R,6S)-6-(phenoxymethyl)tetrahydro-2H-pyran-3-yl]methyl}benzamide] | > 100000 |
| 10 | O=C(NC[C@]1(O)CC[C@H](COc2ccccc2F)CC1)c1ccc(O)c(F)c1 [Example 65, 3-Fluoro-N-({trans-4-[(2-fluorophenoxy)methyl]-1-hydroxycyclohexyl}methyl)-4-hydroxybenzamide] | > 100000 |
| 7.3 | O=C(NC[C@]1(O)CC[C@H](Cc2ccccc2)CC1)c1ccc(O)cc1 [Example 68, N-[(trans-4-Benzyl-1-hydroxycyclohexyl)methyl]-4-hydroxybenzamide] | > 100000 |
| 13.2 | O=C(NC[C@]1(O)CC[C@H](COCc2ccccc2F)CC1)c1ccc(O)c(F)c1 [Example 69, 3-Fluoro-N-[(trans-4-{[(2-fluorobenzyl)oxy]methyl}-1-hydroxycyclohexyl)methyl]-4-hydroxybenzamide] | > 100000 |
| 7.2 | O=C(NC[C@H]1CC[C@@H](COc2ccc(F)cc2)OC1)c1ccc(O)cc1 [Example 74, N-({(3R,6S)-6-[(4-Fluorophenoxy)methyl]tetrahydro-2H-pyran-3-yl}methyl)-4-hydroxybenzamide] | 54700 |
| 6.2 | O=C(NC[C@H]1CC[C@@H](COc2ccc(F)cc2)CO1)c1ccc(O)cc1 [Example 75, N-({(2R,5R)-5-[(4-Fluorophenoxy)methyl]tetrahydro-2H-pyran-2-yl}methyl)-4-hydroxybenzamide] | 26800 |
| 29.3 | O=C(NC[C@@H]1CC[C@H](COc2ccc(F)cc2)CO1)c1ccc(O)cc1 [Example 76, N-({(2S,5S)-5-[(4-Fluorophenoxy)methyl]tetrahydro-2H-pyran-2-yl}methyl)-4-hydroxybenzamide] | 27700 |
| 5.4 | O=C(NC[C@H]1CC[C@@H](OCCOc2ccccc2)CC1)c1ccc(O)cc1 [Example 78] | 40800 |
| 8.9 | O=C(NC[C@]1(O)CC[C@H](Cc2ccc(F)cc2)CC1)c1ccc(O)c(F)c1 [Example 80, 3-Fluoro-N-{[trans-4-(4-fluorobenzyl)-1-hydroxycyclohexyl]methyl}-4-hydroxybenzamide] | > 100000 |
| 9.5 | O=C(NC[C@]1(O)CC[C@H](Cc2ccc(F)cc2)CC1)c1ccc(O)cc1 [Example 81, N-{[trans-4-(4-Fluorobenzyl)-1-hydroxycyclohexyl]methyl}-4-hydroxybenzamide] | 35700 |
| 9 | O=C(NC[C@H]1CC[C@@H](COc2ccccn2)CC1)c1ccc(O)c(F)c1 [Example 89, 3-Fluoro-4-hydroxy-N-({cis-4-[(pyridin-2-yloxy)methyl]cyclohexyl}methyl)benzamide] | > 100000 |
| 5.2 | O=C(NC[C@H]1CC[C@@H](OCCOc2ccc(F)cc2)CC1)c1cn[nH]c1 [Example 90, N-({cis-4-[2-(4-Fluorophenoxy)ethoxy]cyclohexyl}methyl)-1H-pyrazole-4-carboxamide] | > 100000 |
| 13 | O=C(NC[C@H]1CC[C@@H](CCOc2ccccc2)CC1)c1cc(F)c(O)c(F)c1 [Example 91, 3,5-Difluoro-4-hydroxy-N-{[cis-4-(2-phenoxyethyl)cyclohexyl]methyl}benzamide] | > 30000 |
| 4 | O=C(NC[C@H]1CC[C@@H](OCCOc2ccc(F)cc2)CC1)c1ccc(O)nc1 [Example 95] | > 100000 |
| 27.2 | O=C(NC[C@H]1CC[C@@H](COc2ccccn2)CC1)c1cn[nH]c1 [Example 105, N-({cis-4-[(Pyridin-2-yloxy)methyl]cyclohexyl}methyl)-1H-pyrazole-4-carboxamide] | > 100000 |
| 16 | O=C(NC[C@H]1CC[C@@H](COc2cccc(F)c2)CC1)c1cn[nH]c1 [Example 106, N-({cis-4-[(3-Fluorophenoxy)methyl]cyclohexyl}methyl)-1H-pyrazole-4-carboxamide] | 29100 |
| 17.8 | O=C(NC[C@H]1CC[C@@H](COc2ccccc2)CC1)c1cc(F)c(O)c(F)c1 [Example 108, 3,5-Difluoro-4-hydroxy-N-{[cis-4-(phenoxymethyl)cyclohexyl]methyl}benzamide] | > 100000 |
| 6.5 | O=C(NC[C@H]1CC[C@@H](CCOc2ccc(F)cc2)CO1)c1cn[nH]c1 [Example 113, N-({(2R,5S)-5-[2-(4-Fluorophenoxy)ethyl]tetrahydro-2H-pyran-2-yl}methyl)-1H-pyrazole-4-carboxamide] | > 100000 |
| 7.8 | O=C(NC[C@@H]1CC[C@H](CCOc2ccc(F)cc2)CO1)c1cn[nH]c1 [Example 114, N-({(2S,5R)-5-[2-(4-fluorophenoxy)ethyl]tetrahydro-2H-pyran-2-yl}methyl)-1H-pyrazole-4-carboxamide] | 99400 |
| 12.2 | O=C(NC[C@H]1CC[C@@H](COc2ccc(Cl)cc2)CO1)c1cn[nH]c1 [Example 120, N-({(2R,5R)-5-[(4-Chlorophenoxy)methyl]tetrahydro-2H-pyran-2-yl}methyl)-1H-pyrazole-4-carboxamide] | > 30000 |
| 7.1 | Cc1ccc(OC[C@@H]2CC[C@H](CNC(=O)c3cn[nH]c3)OC2)cc1 [Example 123, N-({(2R,5R)-5-[(4-Methylphenoxy)methyl]tetrahydro-2H-pyran-2-yl}methyl)-1H-pyrazole-4-carboxamide] | > 100000 |
| 12.5 | Nc1n[nH]cc1C(=O)NC[C@H]1CC[C@@H](COc2ccc(Cl)cc2)CO1 [Example 125, 3-Amino-N-({(2R,5R)-5-[(4-chlorophenoxy)methyl]tetrahydro-2H-pyran-2-yl}methyl)-1H-pyrazole-4-carboxamide] | > 30000 |
| 18.1 | O=C(NC[C@H]1CC[C@@H](COc2ccc(Cl)cc2)CO1)c1cc(F)c(O)c(F)c1 [Example 126, N-({(2R,5R)-5-[(4-Chlorophenoxy)methyl]tetrahydro-2H-pyran-2-yl}methyl)-3,5-difluoro-4-hydroxybenzamide] | > 100000 |
